Measurements reported in patent US4732969A, “Des-19-leucine, 20-glutamine-calcitonin” (Armour Pharmaceutical Corporation, priority 1986, dated 1988).
Where a SMILES comes first, the peptide text is derived from it. Bridges are numbered along the chain shown (N, C = ends).

Tests used:
[1] = system: serum calcium concentration
Protocol: Biological Assay Of Calcitonin Analogs In Vivo
Rats were divided into four groups of seven animals, and each group was assigned at random to a dose of standard or test solution. Low and high doses were chosen from the linear portion of the dose-response curve. For the salmon calcitonin standard, the values were 0.7 and 2.1 ng. peptide/100 g. body weight (BW). This dose approximates 3 and 9 MU/100 g. BW. Peptides were given by subcutaneous injection (0.2 ml/100 g. BW) and blood was withdrawn 1 hour later for serum calcium determination. Sera are processed and analyzed within two hours of collection. Results were analyzed within two hours of collection.

[2] = literature value, Experientia 32(9), 1104-1106 (1976); cited from earlier work

Molecule: CC(C)C[C@H](NC(=O)[C@H](CCCCN)NC(=O)CNC(=O)[C@H](CC(C)C)NC(=O)[C@@H](NC(=O)[C@@H]1CSSC[C@H](N)C(=O)N[C@@H](CO)C(=O)N[C@@H](CC(N)=O)C(=O)N[C@@H](CC(C)C)C(=O)N[C@@H](CO)C(=O)N[C@@H]([C@@H](C)O)C(=O)N1)C(C)C)C(=O)N[C@@H](CO)C(=O)N[C@@H](CCC(N)=O)C(=O)N[C@@H](CCC(=O)O)C(=O)N[C@@H](CC(C)C)C(=O)N[C@@H](Cc1c[nH]cn1)C(=O)N[C@@H](CCCCN)C(=O)N[C@H](C(=O)N[C@@H](Cc1ccc(O)cc1)C(=O)N1CCC[C@H]1C(=O)N[C@@H](CCCNC(=N)N)C(=O)N[C@H](C(=O)N[C@@H](CC(N)=O)C(=O)N[C@H](C(=O)NCC(=O)N[C@@H](CO)C(=O)NCC(=O)N[C@H](C(=O)N1CCC[C@H]1C(N)=O)[C@@H](C)O)[C@@H](C)O)[C@@H](C)O)[C@@H](C)O [des-Leu^19 -Gln^20 -SCT, des-19-leucine, 20-glutamine-salmon calcitonin] (H-CSNLSTCVLGKLSQELHKTYPRTNTGSGTP-NH2; disulfide 1-7)
- biological potency ([1]; rat, in vivo, sc): 6900 IU/mg

Molecule: CC(C)C[C@H](NC(=O)[C@H](CCCCN)NC(=O)CNC(=O)[C@H](CC(C)C)NC(=O)[C@@H](NC(=O)[C@@H]1CSSC[C@H](N)C(=O)N[C@@H](CO)C(=O)N[C@@H](CC(N)=O)C(=O)N[C@@H](CC(C)C)C(=O)N[C@@H](CO)C(=O)N[C@@H]([C@@H](C)O)C(=O)N1)C(C)C)C(=O)N[C@@H](CO)C(=O)N[C@@H](CCC(N)=O)C(=O)N[C@@H](CCC(=O)O)C(=O)N[C@@H](CC(C)C)C(=O)N[C@@H](Cc1c[nH]cn1)C(=O)N[C@@H](CCCCN)C(=O)N[C@@H](CC(C)C)C(=O)N[C@@H](CCC(N)=O)C(=O)N[C@H](C(=O)N[C@@H](Cc1ccc(O)cc1)C(=O)N1CCC[C@H]1C(=O)N[C@@H](CCCNC(=N)N)C(=O)N[C@H](C(=O)N[C@@H](CC(N)=O)C(=O)N[C@H](C(=O)NCC(=O)N[C@@H](CO)C(=O)NCC(=O)N[C@H](C(=O)N1CCC[C@H]1C(N)=O)[C@@H](C)O)[C@@H](C)O)[C@@H](C)O)[C@@H](C)O [standard salmon calcitonin, salmon calcitonin]
- potency content of the standard ([1]; standard used in the assay, independently determined): greater than 4,000 IU/mg

Molecule: (1,7-α-L-aminosuberic acid)eel calcitonin
- hypocalcemic potency [2]: about 3400 IU/mg

Molecule: eel calcitonin [synthetic eel calcitonin]
- hypocalcemic potency [2]: around 4300 IU/mg
